Laboratory results: patent publication US11046694B2, “Compounds and methods for treating bacterial infections” (Entasis Therapeutics, Inc., priority 2018, dated 2021)
Converted amounts (≈) assume the structure as drawn. Structures can show the parent of a compound that is named as a salt.

Legend:
P. aeruginosa PBP1a = P. aeruginosa PBP1a (Pseudomonas aeruginosa, UniProt Q07806); assay type: biochemical; conditions: P. aeruginosa PBP1a 60 nM, BOCILLIN FL 30 nM, pH 7.0
P. aeruginosa PBP3 = P. aeruginosa PBP3 (Pseudomonas aeruginosa, UniProt G3XD46); assay type: biochemical; conditions: P. aeruginosa PBP3 60 nM, BOCILLIN FL 30 nM, pH 7.0
P. aeruginosa WT (PAO1) = assay: MIC, CLSI broth microdilution, P. aeruginosa; assay type: cell-based; conditions: Pseudomonas aeruginosa, PAO1; CLSI broth microdilution; read-out: P. aeruginosa WT (PAO1) MIC
E. coli (ATCC25922) = assay: MIC against E. coli; conditions: Escherichia coli, ATCC25922, read-out: E. coli MIC (ATCC25922) (mg/L)
A. baumannii (ARC3495) = assay: MIC against A. baumannii; conditions: Acinetobacter baumannii, read-out: A. baumannii MIC (ARC3495) (mg/L)
[1] = test system: K. pneumoniae (ATCC700603); assay: MIC against K. pneumoniae; conditions: Klebsiella pneumoniae, ATCC700603, read-out: K. pneumoniae MIC (ATCC700603)

P. aeruginosa PBP3, sequence (G3XD46 whole entry): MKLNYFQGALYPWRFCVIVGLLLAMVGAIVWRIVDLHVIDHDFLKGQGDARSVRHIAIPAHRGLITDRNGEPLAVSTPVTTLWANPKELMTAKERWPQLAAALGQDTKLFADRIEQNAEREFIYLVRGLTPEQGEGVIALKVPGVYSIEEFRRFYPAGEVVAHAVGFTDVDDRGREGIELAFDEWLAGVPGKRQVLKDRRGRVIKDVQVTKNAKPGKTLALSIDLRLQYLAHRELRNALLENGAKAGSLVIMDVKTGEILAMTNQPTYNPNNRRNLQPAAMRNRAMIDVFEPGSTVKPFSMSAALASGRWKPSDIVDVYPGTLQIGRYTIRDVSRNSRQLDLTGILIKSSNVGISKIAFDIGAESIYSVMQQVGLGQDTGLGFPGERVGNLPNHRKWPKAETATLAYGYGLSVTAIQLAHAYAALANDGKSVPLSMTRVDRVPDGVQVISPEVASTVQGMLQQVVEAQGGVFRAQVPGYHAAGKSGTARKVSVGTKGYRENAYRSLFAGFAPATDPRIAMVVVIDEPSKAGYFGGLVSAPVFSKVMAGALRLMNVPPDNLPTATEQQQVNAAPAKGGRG
P. aeruginosa PBP1a, sequence (Q07806 whole entry): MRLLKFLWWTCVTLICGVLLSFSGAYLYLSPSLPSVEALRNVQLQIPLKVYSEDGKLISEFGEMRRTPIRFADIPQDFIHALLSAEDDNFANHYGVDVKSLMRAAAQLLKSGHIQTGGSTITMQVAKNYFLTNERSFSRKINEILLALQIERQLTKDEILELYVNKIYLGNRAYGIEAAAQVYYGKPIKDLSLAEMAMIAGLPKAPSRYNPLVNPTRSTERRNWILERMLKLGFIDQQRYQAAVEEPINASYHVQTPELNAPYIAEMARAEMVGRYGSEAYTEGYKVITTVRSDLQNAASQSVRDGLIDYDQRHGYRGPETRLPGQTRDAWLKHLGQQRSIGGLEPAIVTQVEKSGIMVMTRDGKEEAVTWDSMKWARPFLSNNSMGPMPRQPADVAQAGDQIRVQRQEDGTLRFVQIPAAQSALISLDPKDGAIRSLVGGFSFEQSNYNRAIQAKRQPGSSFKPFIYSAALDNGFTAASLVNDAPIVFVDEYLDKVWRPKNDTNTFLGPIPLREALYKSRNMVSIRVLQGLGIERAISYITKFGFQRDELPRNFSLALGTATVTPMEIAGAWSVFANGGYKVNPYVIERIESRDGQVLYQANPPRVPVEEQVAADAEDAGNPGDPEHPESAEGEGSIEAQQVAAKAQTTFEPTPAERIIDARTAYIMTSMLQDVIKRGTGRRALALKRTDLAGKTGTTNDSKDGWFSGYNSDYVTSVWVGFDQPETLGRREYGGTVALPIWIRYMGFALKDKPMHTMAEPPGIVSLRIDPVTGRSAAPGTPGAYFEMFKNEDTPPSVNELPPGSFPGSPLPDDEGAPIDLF

Compound: CN/C(=N\OC(=O)NOC)[C@@H]1c2c(cnn2C)[C@@H]2CN1C(=O)N2OS(=O)(=O)O (racemic) [Example 33]
- PBP1a acylation rate, k(on) (M^−1 · s^−1) (P. aeruginosa PBP1a): ** (** represents a k(on) of 100 to 10,000 M^−1 · s^−1)
- PBP3 acylation rate, k(on) (M^−1 · s^−1) (P. aeruginosa PBP3): *** (*** represents a k(on) > 10,000 M^−1 · s^−1)
- MIC (P. aeruginosa WT (PAO1)): 8 to 16 µg/mL (≈ 19.1 to 38.2 µM)
- MIC (E. coli (ATCC25922)): 8 to 16 mg/L (≈ 19.1 to 38.2 µM)
- MIC (A. baumannii (ARC3495)): 8 to 16 mg/L (≈ 19.1 to 38.2 µM)
- MIC [1]: > 16 µg/mL

Compound: CN/C(=N\OC(=O)NC(C)(C)C(=O)O)[C@@H]1c2c(cnn2C)[C@@H]2CN1C(=O)N2OS(=O)(=O)O (racemic) [Example 34]
- PBP1a acylation rate, k(on) (M^−1 · s^−1) (P. aeruginosa PBP1a): ** (** represents a k(on) of 100 to 10,000 M^−1 · s^−1)
- PBP3 acylation rate, k(on) (M^−1 · s^−1) (P. aeruginosa PBP3): *** (*** represents a k(on) > 10,000 M^−1 · s^−1)
- MIC (P. aeruginosa WT (PAO1)): 8 to 16 µg/mL (≈ 16.8 to 33.7 µM)
- MIC (E. coli (ATCC25922)): 8 to 16 mg/L (≈ 16.8 to 33.7 µM)
- MIC (A. baumannii (ARC3495)): > 16 mg/L
- MIC [1]: > 16 µg/mL

Compound: CN/C(=N\O)[C@@H]1c2c(cnn2C/C=N/OCCN)[C@@H]2CN1C(=O)N2OS(=O)(=O)O (racemic) [Example 49, 1-((E)-2-((2-aminoethoxy)imino)ethyl)-8-((Z)—N′-hydroxy-N-methylcarbamimidoyl)-6-oxo-4,8-dihydro-1H-4,7-methanopyrazolo[3,4-e][1,3]diazepin-5(6H)-yl hydrogen sulfate]
- PBP1a acylation rate, k(on) (M^−1 · s^−1) (P. aeruginosa PBP1a): * (* represents a k(on) < 100 M^−1 · s^−1)
- PBP3 acylation rate, k(on) (M^−1 · s^−1) (P. aeruginosa PBP3): *** (*** represents a k(on) > 10,000 M^−1 · s^−1)
- MIC (P. aeruginosa WT (PAO1)): < 8 µg/mL
- MIC (E. coli (ATCC25922)): 8 to 16 mg/L
- MIC (A. baumannii (ARC3495)): 8 to 16 mg/L
- MIC [1]: 8 to 16 µg/mL

Compound: CN/C(=N\OCC(=O)NCCN)[C@@H]1c2c(cnn2C)[C@@H]2CN1C(=O)N2OS(=O)(=O)O (racemic) [Example 58, (4R,8S)-8-((Z)—N′-(2-((2-aminoethyl)amino)-2-oxoethoxy)-N-methylcarbamimidoyl)-1-methyl-6-oxo-4,8-dihydro-1H-4,7-methanopyrazolo[3,4-e][1,3]diazepin-5(6H)-yl hydrogen sulfate]
- PBP1a acylation rate, k(on) (M^−1 · s^−1) (P. aeruginosa PBP1a): * (* represents a k(on) < 100 M^−1 · s^−1)
- PBP3 acylation rate, k(on) (M^−1 · s^−1) (P. aeruginosa PBP3): *** (*** represents a k(on) > 10,000 M^−1 · s^−1)
- MIC (P. aeruginosa WT (PAO1)): < 8 µg/mL
- MIC (E. coli (ATCC25922)): 8 to 16 mg/L
- MIC (A. baumannii (ARC3495)): 8 to 16 mg/L
- MIC [1]: 8 to 16 µg/mL

Compound: CN/C(=N\OCC(=O)NCCCCN)[C@@H]1c2c(cnn2C)[C@@H]2CN1C(=O)N2OS(=O)(=O)O (racemic) [Example 59]
- PBP1a acylation rate, k(on) (M^−1 · s^−1) (P. aeruginosa PBP1a): ** (** represents a k(on) of 100 to 10,000 M^−1 · s^−1)
- PBP3 acylation rate, k(on) (M^−1 · s^−1) (P. aeruginosa PBP3): *** (*** represents a k(on) > 10,000 M^−1 · s^−1)
- MIC (P. aeruginosa WT (PAO1)): < 8 µg/mL
- MIC (E. coli (ATCC25922)): 8 to 16 mg/L (≈ 16.9 to 33.7 µM)
- MIC (A. baumannii (ARC3495)): 8 to 16 mg/L (≈ 16.9 to 33.7 µM)
- MIC [1]: > 16 µg/mL

Compound: CN/C(=N\OCC(=O)NCCCC[C@H](N)C(=O)O)[C@@H]1c2c(cnn2C)[C@@H]2CN1C(=O)N2OS(=O)(=O)O (racemic) [Example 60]
- PBP1a acylation rate, k(on) (M^−1 · s^−1) (P. aeruginosa PBP1a): * (* represents a k(on) < 100 M^−1 · s^−1)
- PBP3 acylation rate, k(on) (M^−1 · s^−1) (P. aeruginosa PBP3): *** (*** represents a k(on) > 10,000 M^−1 · s^−1)
- MIC (P. aeruginosa WT (PAO1)): 8 to 16 µg/mL (≈ 15 to 30 µM)
- MIC (E. coli (ATCC25922)): < 8 mg/L
- MIC (A. baumannii (ARC3495)): > 16 mg/L
- MIC [1]: > 16 µg/mL

Compound: CN/C(=N\OCC(=O)NC1CNC1)[C@@H]1c2c(cnn2C)[C@@H]2CN1C(=O)N2OS(=O)(=O)O (racemic) [Example 61]
- PBP1a acylation rate, k(on) (M^−1 · s^−1) (P. aeruginosa PBP1a): * (* represents a k(on) < 100 M^−1 · s^−1)
- PBP3 acylation rate, k(on) (M^−1 · s^−1) (P. aeruginosa PBP3): ** (** represents a k(on) of 100 to 10,000 M^−1 · s^−1)
- MIC (P. aeruginosa WT (PAO1)): 8 to 16 µg/mL (≈ 17.4 to 34.9 µM)
- MIC (E. coli (ATCC25922)): < 8 mg/L
- MIC (A. baumannii (ARC3495)): > 16 mg/L
- MIC [1]: > 16 µg/mL

Compound: CN/C(=N\OC(=O)NCCNC(N)=O)[C@@H]1c2c(cnn2C)[C@@H]2CN1C(=O)N2OS(=O)(=O)O [Example 42, (4R,8S)-1-methyl-8-((Z)—N-methyl-N′-(((2-ureidoethyl)carbamoyl)oxy)carbamimidoyl)-6-oxo-4,8-dihydro-1H-4,7-methanopyrazolo[3,4-e][1,3]diazepin-5(6H)-yl hydrogen sulfate]
- PBP1a acylation rate, k(on) (M^−1 · s^−1) (P. aeruginosa PBP1a): ** (** represents a k(on) of 100 to 10,000 M^−1 · s^−1)
- PBP3 acylation rate, k(on) (M^−1 · s^−1) (P. aeruginosa PBP3): *** (*** represents a k(on) > 10,000 M^−1 · s^−1)
- MIC (P. aeruginosa WT (PAO1)): 8 to 16 µg/mL
- MIC (E. coli (ATCC25922)): 8 to 16 mg/L
- MIC (A. baumannii (ARC3495)): 8 to 16 mg/L
- MIC [1]: > 16 µg/mL

Compound: CN(C(N)=O)/C(=N\OC(=O)NCCNC(N)=O)[C@@H]1c2c(cnn2C)[C@@H]2CN1C(=O)N2OS(=O)(=O)O [Example 43, (4R,8S)-8-((Z)—N-carbamoyl-N-methyl-N′-(((2-ureidoethyl)carbamoyl)oxy)carbamimidoyl)-1-methyl-6-oxo-4,8-dihydro-1H-4,7-methanopyrazolo[3,4-e][1,3]diazepin-5(6H)-yl hydrogen sulfate]
- PBP1a acylation rate, k(on) (M^−1 · s^−1) (P. aeruginosa PBP1a): ** (** represents a k(on) of 100 to 10,000 M^−1 · s^−1)
- PBP3 acylation rate, k(on) (M^−1 · s^−1) (P. aeruginosa PBP3): *** (*** represents a k(on) > 10,000 M^−1 · s^−1)
- MIC (P. aeruginosa WT (PAO1)): > 16 µg/mL
- MIC (E. coli (ATCC25922)): < 8 mg/L
- MIC (A. baumannii (ARC3495)): > 16 mg/L
- MIC [1]: > 16 µg/mL

Compound: CN/C(=N\OC(=O)NCCNC(C)=O)[C@@H]1c2c(cnn2C)[C@@H]2CN1C(=O)N2OS(=O)(=O)O [Example 44, (4R,8S)-8-((Z)—N′-(((2-acetamidoethyl)carbamoyl)oxy)-N-methylcarbamimidoyl)-1-methyl-6-oxo-4,8-dihydro-1H-4,7-methanopyrazolo[3,4-e][1,3]diazepin-5(6H)-yl hydrogen sulfate]
- PBP1a acylation rate, k(on) (M^−1 · s^−1) (P. aeruginosa PBP1a): ** (** represents a k(on) of 100 to 10,000 M^−1 · s^−1)
- PBP3 acylation rate, k(on) (M^−1 · s^−1) (P. aeruginosa PBP3): *** (*** represents a k(on) > 10,000 M^−1 · s^−1)
- MIC (P. aeruginosa WT (PAO1)): > 16 µg/mL
- MIC (E. coli (ATCC25922)): 8 to 16 mg/L
- MIC (A. baumannii (ARC3495)): > 16 mg/L
- MIC [1]: > 16 µg/mL

Compound: CN/C(=N\OC(=O)NCCCCNC(=O)C(F)(F)F)[C@@H]1c2c(cnn2C)[C@@H]2CN1C(=O)N2OS(=O)(=O)O [Example 45, (4R,8S)-1-methyl-8-((Z)—N-methyl-N′-(((4-(2,2,2-trifluoroacetamido)butyl)carbamoyl)oxy)carbamimidoyl)-6-oxo-4,8-dihydro-1H-4,7-methanopyrazolo[3,4-e][1,3]diazepin-5(6H)-yl hydrogen sulfate]
- PBP1a acylation rate, k(on) (M^−1 · s^−1) (P. aeruginosa PBP1a): ** (** represents a k(on) of 100 to 10,000 M^−1 · s^−1)
- PBP3 acylation rate, k(on) (M^−1 · s^−1) (P. aeruginosa PBP3): *** (*** represents a k(on) > 10,000 M^−1 · s^−1)
- MIC (P. aeruginosa WT (PAO1)): > 16 µg/mL
- MIC (E. coli (ATCC25922)): < 8 mg/L
- MIC (A. baumannii (ARC3495)): > 16 mg/L
- MIC [1]: > 16 µg/mL

Compound: CN/C(=N\OS(N)(=O)=O)[C@@H]1c2c(cnn2C)[C@@H]2CN1C(=O)N2OS(=O)(=O)O [Example 46, (4R,8S)-1-methyl-8-((Z)—N-methyl-N′-(sulfamoyloxy)carbamimidoyl)-6-oxo-4,8-dihydro-1H-4,7-methanopyrazolo[3,4-e][1,3]diazepin-5(6H)-yl hydrogen sulfate]
- PBP1a acylation rate, k(on) (M^−1 · s^−1) (P. aeruginosa PBP1a): ** (** represents a k(on) of 100 to 10,000 M^−1 · s^−1)
- PBP3 acylation rate, k(on) (M^−1 · s^−1) (P. aeruginosa PBP3): *** (*** represents a k(on) > 10,000 M^−1 · s^−1)
- MIC (P. aeruginosa WT (PAO1)): 8 to 16 µg/mL
- MIC (E. coli (ATCC25922)): 8 to 16 mg/L
- MIC (A. baumannii (ARC3495)): > 16 mg/L
- MIC [1]: 8 to 16 µg/mL

Compound: CN/C(=N\O)[C@@H]1c2c(cnn2CCNC(C)=O)[C@@H]2CN1C(=O)N2OS(=O)(=O)O [Example 48, (4R,8S)-1-(2-acetamidoethyl)-8-((Z)—N′-hydroxy-N-methylcarbamimidoyl)-6-oxo-4,8-dihydro-1H-4,7-methanopyrazolo[3,4-e][1,3]diazepin-5(6H)-yl hydrogen sulfate]
- PBP1a acylation rate, k(on) (M^−1 · s^−1) (P. aeruginosa PBP1a): * (* represents a k(on) < 100 M^−1 · s^−1)
- PBP3 acylation rate, k(on) (M^−1 · s^−1) (P. aeruginosa PBP3): *** (*** represents a k(on) > 10,000 M^−1 · s^−1)
- MIC (P. aeruginosa WT (PAO1)): 8 to 16 µg/mL
- MIC (E. coli (ATCC25922)): < 8 mg/L
- MIC (A. baumannii (ARC3495)): > 16 mg/L
- MIC [1]: > 16 µg/mL

Compound: CN/C(=N\O)[C@@H]1c2c(cnn2CC(N)=O)[C@@H]2CN1C(=O)N2OS(=O)(=O)O [Example 50, (4R,8S)-1-(2-amino-2-oxoethyl)-8-((Z)—N′-hydroxy-N-methylcarbamimidoyl)-6-oxo-4,8-dihydro-1H-4,7-methanopyrazolo[3,4-e][1,3]diazepin-5(6H)-yl sulfate]
- PBP1a acylation rate, k(on) (M^−1 · s^−1) (P. aeruginosa PBP1a): ** (** represents a k(on) of 100 to 10,000 M^−1 · s^−1)
- PBP3 acylation rate, k(on) (M^−1 · s^−1) (P. aeruginosa PBP3): *** (*** represents a k(on) > 10,000 M^−1 · s^−1)
- MIC (P. aeruginosa WT (PAO1)): < 8 µg/mL
- MIC (E. coli (ATCC25922)): < 8 mg/L
- MIC (A. baumannii (ARC3495)): 8 to 16 mg/L
- MIC [1]: < 8 µg/mL
